The results in this text go back to patent US20250368636A1, “NOVEL HETEROCYCLIC COMPOUND, SALT THEREOF, AND L[…] COMPOSITION” (The University of Electro-Communications, priority 2022, published 2025).

Each structure is given as a SMILES string.

Chain of natural firefly luciferase (Fluc) (P08659 whole entry): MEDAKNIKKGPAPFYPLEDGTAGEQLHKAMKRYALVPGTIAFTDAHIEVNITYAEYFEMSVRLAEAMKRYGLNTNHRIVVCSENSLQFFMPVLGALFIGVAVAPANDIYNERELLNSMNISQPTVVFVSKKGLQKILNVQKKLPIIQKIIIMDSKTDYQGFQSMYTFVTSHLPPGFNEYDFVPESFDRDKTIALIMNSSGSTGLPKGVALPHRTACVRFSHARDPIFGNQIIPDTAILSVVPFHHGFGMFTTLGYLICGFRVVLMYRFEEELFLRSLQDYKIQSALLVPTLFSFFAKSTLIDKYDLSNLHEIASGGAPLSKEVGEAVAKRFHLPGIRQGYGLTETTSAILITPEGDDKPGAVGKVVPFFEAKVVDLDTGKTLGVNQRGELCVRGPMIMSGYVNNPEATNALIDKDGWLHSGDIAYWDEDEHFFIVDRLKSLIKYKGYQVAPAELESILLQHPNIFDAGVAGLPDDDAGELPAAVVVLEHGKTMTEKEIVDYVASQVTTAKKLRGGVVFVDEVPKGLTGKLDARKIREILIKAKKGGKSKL

The test concerns the target natural firefly luciferase (Fluc) (Photinus pyralis, UniProt P08659). As to the kind of experiment: Measurement of emission spectrum with natural firefly luciferase, ATP magnesium salt and luminescent substrate. It counts as biochemical. The following applies: 100 μM substrate solution, KPB pH 8.0, Fluc 1 mg/mL, 10 mM ATP magnesium salt, measured for 180 seconds. The method, then: The emission spectra were measured using the luminescent substrates represented by the structural formulas (1-1) to (1-10) synthesized as described above and the luminescent substrate represented by the structural formula (a) below. The luminescent substrate represented by the structural formula (a) was prepared according to “Synthesis of Luminescent Substrate C” in WO 2021/193069 A1 (PTL 4).
Specifically, 5 μL of 500 mM potassium phosphate buffer (KPB, pH 8.0), 5 μL of a 100 μM solution of each luminescent substrate, 5 µL of a 1 mg/mL solution of natural firefly luciferase (Fluc), and 10 μL of a 10 mM ATP magnesium salt solution were mixed, and the emission spectrum was measured for 180 seconds using a luminescence measurement device (AB-1850 manufactured by ATTO Corporation). However, the substrate concentration for the luminescent substrate represented by the structural formula (a) was set to 1 mM, and the substrate concentration for the luminescent substrate represented by the structural formula (1-6) was set to 10 mM. Note that FIGS. 1 to 3 illustrate emission spectra normalized so that the maximum emission intensity was 1.
On to `O=C(O)[C@H]1CSC(c2ccc(/C=C/c3ccc[nH]3)cc2)=N1` [Compound of structural formula (1-1)], for which the “Maximum emission wavelength for each substrate (λmax)” value (from here on “Maximum emission wavelength”) was 640 nm.

In the case of `O=C(O)[C@H]1CSC(c2ccc(/C=C/c3ccc[nH]3)cn2)=N1` [Compound of structural formula (1-2)], the “Maximum emission wavelength” value was found to be 660 nm.

`Cn1cccc1/C=C/c1ccc(C2=N[C@@H](C(=O)O)CS2)cc1` [Compound of structural formula (1-3)]: the “Maximum emission wavelength” value was 640 nm.

On to `Cn1cccc1/C=C/c1ccc(C2=N[C@@H](C(=O)O)CS2)nc1` [Compound of structural formula (1-4)], for which the “Maximum emission wavelength” value stood at 660 nm.

Take `CN(C)c1ncc(/C=C/c2ccc(C3=N[C@@H](C(=O)O)CS3)nc2)s1` [Compound of structural formula (1-7)]: the “Maximum emission wavelength” value worked out at 710 nm.

In the case of `CN(C)c1ncc(/C=C/c2ccc(C3=N[C@@H](C(=O)O)CS3)cc2)s1` [Compound of structural formula (1-8)], the “Maximum emission wavelength” value amounted to 680 nm.

In the case of `CN(C)c1cnc(/C=C/c2ccc(C3=N[C@@H](C(=O)O)CS3)nc2)s1` [Compound of structural formula (1-9)], the “Maximum emission wavelength” value came out at 760 nm.

Take `CN(C)c1cnc(/C=C/c2ccc(C3=N[C@@H](C(=O)O)CS3)cn2)s1` [Compound of structural formula (1-10)]: the “Maximum emission wavelength” value turned out to be 730 nm.
